Experiments:
[1] = system: db/db mice; test: Full field electroretinogram (ffERG) in db/db mice; type: in vivo; settings: stimuli 10 and 40 cd s/m2, vs Placebo
Excerpt: (§1) The db/db mice have a mutation in the leptin receptor gene and they are an animal model of retinal neurodegeneration. Such model is useful to mime the pathophysiological events which are found in neurodegenerative pathologies such as glaucoma.
(§2) 20 db/db […] (BKS.Cg-+Leprdb/+Leprdb/OlaHsd, males, 10 weeks) were randomized in 5 groups and treated for 15 days by oral route with oral solutions based on: • 1. Citicoline 0.5% (Cit.) in 10% lactose solution administered with nasogastric tube (SNG); • 2. […] 10% lactose solution (Placebo) administered with SNG; • 5. Healthy, non-diabetic control (Control).
Through (ii) full field Electroretinogram (ffERG) the electrical activity and then the functionality of the retinal cells were evaluated. The recordings were measured by using ERG platform of Ganzfeld (Phoenix Research Laboratories, Pleasanton, CA, USA) and according to the recommendations of ISCEV (International Society for Clinical Electrophysiology of Vision).

[2] = system: apoptotic cells in the GCL retinal layer; test: TUNEL assay of cellular apoptosis in retina of db/db mice; type: in vivo; settings: vs vehicle
Excerpt: as §1, §2
(iv) The search for events of cellular apoptosis was performed through TUNEL assay by using the kit DeadEnd™ Fluorometric TUNEL System (PROMEGA, Madison, WI, USA). The TUNEL (Terminal Transferase dUTP Nick-End Labeling) colouring was performed by using the Kit system TUNEL Fluorometric DeadEnd (PROMEGA, Madison, WI, USA). Cryosections of retina were permeabilized by incubation for 2 minutes on ice with 0.1% Triton X-100 in 0.1% sodium citrate. The secondary antibody was Alexa 488 goat-anti-rabbit. For the evaluation by means of confocal laser scanning microscopy the excitation wavelength was 488 nm (detection in the range 515-565 nm (green)).

[3] = system: patients affected by open-angle glaucoma; test: Clinical observation: visual field testing by automatic perimetry (MD); type: in vivo, human; settings: for change in MD: 6 months, vs baseline or not treated group; for MD: after 6 months of treatment, in addition to hypotensive therapy, 3 patients
Description: 12 randomized patients were included in 4 groups: • CIT. GROUP-3 patients treated with citicoline in oral solution 10 ml/die corresponding to 500 mg/die of citicoline, in addition to the hypotensive therapy; • NIC. […] The patients were treated and followed for 6 months. At baseline and after 6 months of treatment complete eye examination including visual acuity, control of the intraocular pressure (IOP) with Goldmann tonometry (GAT); visual field testing, electro-functional and morphological examination were performed. (1) The visual field testing was performed with automatic perimetry (HFA, Sita Standard 24-2 protocol; Zeiss, San Leandro, CA, USA). Such analysis represents the gold standard for diagnosis and follow-up of the glaucomatous patient and allows to represent graphically the extension in the space of the visual capability, by measuring even the peripheral vison thereof. Two analyses on each examination were performed and the second test was considered for the analysis. To perform the test, the patients were positioned in front of the instrument. After having rested forehead and chin inside the dome, with the covered unexamined eye, they started to fix a central target and pressed a button whenever they perceived against themselves aluminous stimulus, even if with poor intensity. MD was considered as perimetric index.

[4] = system: visual cortex; test: Clinical observation: electro-functional test, PEV visual evoked potentials; type: in vivo, human; settings: after 6 months of treatment, in addition to hypotensive therapy, 3 patients
Description: 12 randomized patients were included in 4 groups: • CIT. GROUP-3 patients treated with citicoline in oral solution 10 ml/die corresponding to 500 mg/die of citicoline, in addition to the hypotensive therapy; • NIC. […] The patients were treated and followed for 6 months. At baseline and after 6 months of treatment complete eye examination including visual acuity, control of the intraocular pressure (IOP) with Goldmann tonometry (GAT); visual field testing, electro-functional and morphological examination were performed. Then (2) electro-functional test was performed: electroretinogram from PERG pattern and of the PEV visual evoked potentials to evaluate the bioelectric responses respectively of the retinal ganglion cells and of the visual cortex evoked from the visual stimuli. The patients were positioned in an acoustically insulated semi-dark room, in front of the display surrounded by a uniform field of luminance of 5 cd/m2. […] The signal to PERG and PEV was recorded by a small electrode of Ag/AgCl positioned respectively above the lower eyelid and on the scalp. […] The peak-peak widths were measured at PERG P50-N95 for each wave. […] During a recording session, simultaneous PERG and PEV were recorded at least twice (between two and six times) and the resulting waveforms were overlapped to verify the repeatability of results. […]

[5] = system: glaucomatous patients; settings: cited from earlier work
[6] = system: patients with controlled IOP; settings: oral citicoline, patients with IOP <18 mmHg on b-blockers; cited from earlier work
[7] = system: glaucomatous patients; settings: citicoline intramuscularly, 10-year follow-up; cited from earlier work
[8] = in five days; cited from earlier work

## C[N+](C)(C)CCOP(=O)([O-])OP(=O)(O)OC[C@H]1O[C@@H](n2ccc(N)nc2=O)C(O)C1O (stereo partly shown) [Citicoline, citidin-5′-difosfocholine]
[1]
  reduction in the width of wave b at ERG: attenuated with respect to Placebo
[2]
  apoptosis in GCL retinal layer (TUNEL): lower apoptosis rate with respect to the diabetic mice treated with the vehicle
[3]
  change in MD: significant improvement in MD with respect to the baseline
  MD: −8.70 (±2.8)
[4]
  PEV P100 IT: 119.1 (±7.22) ms
[5]; citicoline in oral solution
  increase of the width of P50-N95 tract of pERG: 100%
[5]; oral solution 500 mg/die, vs antihypertensive therapy only
  loss of nervous fibres at the retinal layer through GDX: slows down the loss of nervous fibres at the retinal layer
[6]
  latency time of VEP: decrease in latency time of VEP
  width of PERG signal: improvement in the width of PERG signal
[7]
  perimetric defect (areas of not perception): reduction of the perimetric defect
[8]
  elimination of the marked products: 16%

## NC(=O)c1cccnc1 [Nicotinamide]
[1]
  reduction in the width of wave b at ERG: attenuated with respect to Placebo
[2]
  apoptosis in GCL retinal layer (TUNEL): lower apoptosis levels than the diabetic mice treated with the vehicle but with not statistically significant levels
[3]
  change in MD: lower reduction in the MD value with respect to the not treated group
  MD: −8.92 (±2.6)*^
[4]
  PEV P100 IT: 119.5 (±7.00) ms

Reference: patent publication US20240261315A1 (Omikron Italia S.r.l., priority 2021, published 2024)
